Results taken from patent US12522599B2, “Crystal forms of acrylic acid derivatives, preparation method therefor and use thereof” (ZHEJIANG HISUN PHARMACEUTICAL CO., LTD., priority 2019, dated 2026).

Tests used:
[1] = Stability experiment (75% RH, 92.5% RH, 40° C., 60° C. and light for 10 days; XRPD pattern and purity); type: physicochemical; details: for stability (in words): 60° C. and light for 10 days
Procedure: X-ray powder diffraction instrument and test conditions involved in the present disclosure: the model of the X-ray diffraction instrument was Rigaku D/max-2200 Cu target; the operation method included a scanning speed of 10°/min and scanning step width of 0.01°.
High-performance liquid chromatography (HPLC) test conditions involved in the present disclosure: the model of the liquid chromatograph was Agilent 1260; the chromatographic column was Agilent Eclipse XDB C-18 250 mm*4.6 mm Sum; the detection wavelength was 280 nm; and the column temperature was 35° C.
The amorphous form of compound of formula I prepared in Preparation Example, the crystal form A of the compound of formula I prepared in Example 1, the crystal form B of the compound of formula I prepared in Example 7, and the crystal form C of the compound of formula I prepared in Example 11 were placed in 75% RH, 92.5% RH, 40° C., 60° C. and light for 10 days respectively, and the X-ray powder diffraction pattern and purity of each crystal form were measured.

[2] = Granularity experiment; type: physicochemical
Procedure: (§1) The amorphous form of compound of formula I prepared in Preparation Example, the crystal form A of the compound of formula I prepared in Example 1, the crystal form B of the compound of formula I prepared in Example 7, and the crystal form C of the compound of formula I prepared in Example 11 were measured for granularity, and the specific results are shown in the following table: […]

[3] = Flowability test (angle of repose); type: physicochemical
Procedure: as §1, with “angle of repose,” for “granularity,”

[4] = molecular target: T1, ERα (Homo sapiens, UniProt P03372); details: as indicated in WO2017080338A1; cited from earlier work
T1 sequence (P03372 1-595): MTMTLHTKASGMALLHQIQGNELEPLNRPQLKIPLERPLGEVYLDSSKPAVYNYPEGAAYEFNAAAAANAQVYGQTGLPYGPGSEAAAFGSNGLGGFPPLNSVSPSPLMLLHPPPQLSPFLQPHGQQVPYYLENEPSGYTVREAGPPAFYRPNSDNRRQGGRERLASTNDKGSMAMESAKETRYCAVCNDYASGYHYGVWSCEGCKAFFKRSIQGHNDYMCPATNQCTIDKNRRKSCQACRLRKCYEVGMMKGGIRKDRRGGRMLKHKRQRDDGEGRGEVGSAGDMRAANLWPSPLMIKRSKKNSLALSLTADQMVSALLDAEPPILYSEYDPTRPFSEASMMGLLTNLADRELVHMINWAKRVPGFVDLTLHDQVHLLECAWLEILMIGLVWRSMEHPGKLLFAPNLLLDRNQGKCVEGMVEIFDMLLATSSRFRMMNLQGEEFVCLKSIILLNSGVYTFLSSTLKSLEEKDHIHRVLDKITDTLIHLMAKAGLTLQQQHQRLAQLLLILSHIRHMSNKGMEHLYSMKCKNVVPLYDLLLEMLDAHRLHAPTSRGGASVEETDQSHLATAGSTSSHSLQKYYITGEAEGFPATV

[5] = compared with crystal forms A, B and C

Row | SMILES | Purity % ([1]; 0 day) [%] | Purity % ([1]; 40° C., 10 days) [%] | Purity % ([1]; 60° C., 10 days) [%] | Purity % ([1]; 75% RH, 10 days) [%] | Purity % ([1]; 92.5% RH, 10 days) [%] | Purity % ([1]; Light, 10 days) [%] | D50 ([2]; granularity) [μm] | granularity ([2]; granularity, second column under amorphous form) [μm] | angle of repose ([3]; measurement 1) [°] | angle of repose ([3]; measurement 2) [°] | angle of repose ([3]; measurement 3) [°] | stability (in words) ([1]; 75% RH, 92.5% RH, 40° C.) | D90 ([2]; granularity) [μm] | granularity (in words) [2, 5] | angle of repose (in words) [3, 5] | effect of down-regulating ERα [4]
1 | C[C@@H]1Cc2c([nH]c3ccccc23)[C@@H](c2c(F)cc(/C=C/C(=O)O)cc2F)N1CC1(F)CC1 [compound of formula I, (E)-3-(3,5-difluoro-4-((1R,3R)-2-((1-fluorocyclopropyl)methyl)-3-methyl-2,3,4,9-tetrahydro-1H-pyrido[3,4-b]indol-1-yl)phenyl)acrylic acid] | – | – | – | – | – | – | – | – | – | – | – | – | – | – | – | good effect of down-regulating ERα
2 | C[C@@H]1Cc2c([nH]c3ccccc23)[C@@H](c2c(F)cc(/C=C/C(=O)O)cc2F)N1CC1(F)CC1 [crystal form A, (E)-3-(3,5-difluoro-4-((1R,3R)-2-((1-fluorocyclopropyl)methyl)-3-methyl-2,3,4,9-tetrahydro-1H-pyrido[3,4-b]indol-1-yl)phenyl)acrylic acid] | 99.33 | 99.27 | 99.22 | 99.31 | 99.34 | 99.27 | 16.37 | – | 30.6 | 29.6 | 30.5 | good stability | 61.86 | – | – | –
3 | C[C@@H]1Cc2c([nH]c3ccccc23)[C@@H](c2c(F)cc(/C=C/C(=O)O)cc2F)N1CC1(F)CC1 [crystal form C, (E)-3-(3,5-difluoro-4-((1R,3R)-2-((1-fluorocyclopropyl)methyl)-3-methyl-2,3,4,9-tetrahydro-1H-pyrido[3,4-b]indol-1-yl)phenyl)acrylic acid] | 99.78 | 99.80 | 99.84 | 99.79 | 99.78 | 99.71 | 15.02 | – | 31.5 | 31.8 | 30.9 | good stability | 59.88 | – | – | –

More lines, main results first:

Row | Purity % ([1]; 0 day) [%] | Purity % ([1]; 40° C., 10 days) [%] | Purity % ([1]; 60° C., 10 days) [%] | Purity % ([1]; 75% RH, 10 days) [%] | Purity % ([1]; 92.5% RH, 10 days) [%] | Purity % ([1]; Light, 10 days) [%] | D50 ([2]; granularity) [μm] | granularity ([2]; granularity, second column under amorphous form) [μm] | angle of repose ([3]; measurement 1) [°] | angle of repose ([3]; measurement 2) [°] | angle of repose ([3]; measurement 3) [°] | stability (in words) ([1]; 75% RH, 92.5% RH, 40° C.) | D90 ([2]; granularity) [μm] | SMILES | granularity (in words) [2, 5] | angle of repose (in words) [3, 5] | effect of down-regulating ERα [4]
4 | 95.82 | 95.80 | 95.67 | 96.22 | 96.57 | 95.55 | 3.02 | 23.01 | 43.2 | 41.9 | 42.5 | – | – | C[C@@H]1Cc2c([nH]c3ccccc23)[C@@H](c2c(F)cc(/C=C/C(=O)O)cc2F)N1CC1(F)CC1 [amorphous form, (E)-3-(3,5-difluoro-4-((1R,3R)-2-((1-fluorocyclopropyl)methyl)-3-methyl-2,3,4,9-tetrahydro-1H-pyrido[3,4-b]indol-1-yl)phenyl)acrylic acid] | significantly smaller than that of the crystal forms A, B, and C | significantly larger than that of the crystal forms A, B and C | –
5 | 99.87 | 99.77 | 99.75 | 99.81 | 99.81 | 99.68 | 15.48 | – | 32.5 | 31.3 | 32.3 | good stability | 60.79 | C[C@@H]1Cc2c([nH]c3ccccc23)[C@@H](c2c(F)cc(/C=C/C(=O)O)cc2F)N1CC1(F)CC1 [crystal form B, (E)-3-(3,5-difluoro-4-((1R,3R)-2-((1-fluorocyclopropyl)methyl)-3-methyl-2,3,4,9-tetrahydro-1H-pyrido[3,4-b]indol-1-yl)phenyl)acrylic acid] | – | – | –
